Measurements from patent publication US20180244653A1, “SELECTIVE ALPHA-7 NICOTINIC RECEPTOR AGONISTS AND METHODS FOR MAKING AND USING THEM” (THE REGENTS OF THE UNIVERSITY OF CALIFORNIA, priority 2015, published 2018).
“And” between values parts separate entries of the source, which are not always exact repeats. Equal values may be shown once. Read-outs that look alike come from different tables or passages of the source.

Columns and labels:
5HT3A receptors [1] = biological target: T1, 5HT3A receptors (Mus musculus, UniProt P23979); assay: Intact cell competitive radioligand binding assay ([3H]-granisetron, SPA), LGIC-CNiFERs; details: for Kd: >10 = did not pass initial screen at 10 μM
T1 construct: expressed in transfected cells; host or cells: HEK293 cells co-expressing TN-XXL
T1 sequence (P23979 24-489): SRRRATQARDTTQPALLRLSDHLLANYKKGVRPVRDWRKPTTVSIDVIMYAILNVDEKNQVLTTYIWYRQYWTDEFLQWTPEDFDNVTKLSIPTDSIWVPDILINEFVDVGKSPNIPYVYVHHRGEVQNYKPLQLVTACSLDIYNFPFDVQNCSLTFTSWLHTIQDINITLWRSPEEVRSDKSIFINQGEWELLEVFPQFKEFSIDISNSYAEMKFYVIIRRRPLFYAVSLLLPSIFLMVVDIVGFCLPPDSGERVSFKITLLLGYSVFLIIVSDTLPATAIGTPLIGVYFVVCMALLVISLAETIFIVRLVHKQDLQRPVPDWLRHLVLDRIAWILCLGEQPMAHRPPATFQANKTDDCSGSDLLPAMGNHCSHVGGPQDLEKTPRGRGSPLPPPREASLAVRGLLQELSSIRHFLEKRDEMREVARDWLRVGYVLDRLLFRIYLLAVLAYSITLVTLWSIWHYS

5HT3A receptors [2] = biological target: T1, 5HT3A receptors; assay: FRET functional assay (agonist/antagonist) using LGIC-CNiFERs; format: cell-based; details: for EC50: read-out: Agonist EC50 ± SD, 5HT3A; for Functional properties at 5HT3A receptors (agonist / antagonist, type): functional screening and characterization
Method: (§1) Initially, the agonist properties of tested compounds were assessed directly. […] All α7-nAChR functional assays were performed in the presence of PNU-120596, an α7-nAChR positive allosteric modulator (PAM), to increase signal and delay the sensitization state of α7-nAChRs enabling the measurement of more prolonged FRET signals.^29 Compounds having agonist responses of >0.20 were determined for EC50, and compounds having inhibition fraction of >0.50 were determined for KA.^25 EC50>13.3 μM and KA>10 μM which are a screening concentration for agonist and antagonist, respectively were reported compounds not taken for further in the screening of receptor occupation and responses.
(§2) Agonist and antagonist elicited responses were characterized using the above CNiFER cell expressing Cys-loop ligand-gated ion channel (LGIC) receptors. […] A 96-well black, clear-bottom microplate (Greiner bio-one, Germany) was coated with poly-D-lysine (Sigma-Aldrich, St. Louis, Mo.) 50 μL/well for 30 min and washed out with Phosphate-Buffered Saline (PBS) (Corning, Cellgro, Manassas, Va.) before plating the cells. After plating and incubation at 37° C. for 1 day, the media was replaced with 100 μL of artificial cerebrospinal fluid (aCSF: 121 mM NaCl, 5 mM KCl, 26 mM NaHCO3, 1.2 mM NaH2PO4H2O, 10 mM glucose, 2.4 mM CaCl2, 1.3 mM MgSO4, 5 mM HEPES, pH 7.4) for 4032 and 5HT3A receptors, whereas 10 μM PNU-120596 (Tocris Bioscience, Bristol, UK) in aCSF with 30 min incubation at 37° C. was used for α7-nAChR. The tested compounds were prepared in aCSF for all receptors except α7-nAChR, where 10 μM PNU-120596, a positive allosteric modulator (PAM) was used. The prepared compounds were added in a separate 96-well polypropylene plate (Costar, Corning, N.Y.). Experiments were conducted at 37° C. using 436-nm excitation. Emitted light was collected at 485 nm and 528 nm. Basal fluorescence was recorded for 30 s, followed by addition of 50 μL of ligand (first addition). Measurements were made at 3.84 s intervals for 2 min to measure the agonistic effect. […] Agonist and antagonist properties were sequentially screened at the final concentration of 13.3 and 10 μM, respectively, which differed from the screening concentration from intact cell binding assay (10 μM).

α4β2-nAChRs [3] = biological target: T2, α4β2-nAChRs (Homo sapiens, UniProt P17787+P43681); assay: as above; format: cell-based; details: for Functional properties at α4β2-nAChRs (agonist / antagonist, type): functional screening and characterization
T2 construct: expressed in transfected cells; host or cells: HEKtsA201 cells co-expressing TN-XXL
Method: as §1, §2

α7-nAChRs = biological target: T3, α7-nAChRs (Homo sapiens, UniProt P36544); assay: as above; format: cell-based; details: for EC50: in presence of 10 μM PNU-120596, * partial agonist, read-out: Agonist EC50 ± SD, α7; for Functional properties at α7-nAChRs (agonist / antagonist): functional screening and characterization
T3 construct: expressed in transfected cells; host or cells: HEKtsA201 cells co-expressing TN-XXL
Method: as §1, §2

[4] = biological target: α7/5HT3A chimera receptor (hα7/m5HT3A), used for α7-nAChRs (UniProt P23979+P36544, M226I/T225I); assay: Intact cell competitive radioligand binding assay ([3H]-(±)-epibatidine, SPA), LGIC-CNiFERs; details: for Kd: read-out: Kd ± SD, α7-nAChRs, >10 = did not pass initial screen at 10 μM
α4β2-nAChRs [5] = biological target: T2, α4β2-nAChRs; assay: as above; details: 10 μM, more than 50% radioligand displacement
[6] = competitive antagonist (^C), >10 = did not pass initial screen, vs (±)-epibatidine, read-out: Antagonist KA ± SD, α4β2
[7] = >10 = did not pass initial screen
[8] = Antagonist KA ± SD, α4β2, competitive antagonist (^C), >10 = did not pass initial screen, vs (±)-epibatidine
[9] = 10 μM, more than 50% radioligand displacement

| SMILES | Kd (5HT3A receptors [1]; read-out: Kd ± SD, 5HT3A) | Functional properties at 5HT3A receptors (agonist / antagonist, type) (5HT3A receptors [2]) | Kd (α4β2-nAChRs [3]; [6]) | EC50 (α7-nAChRs; [7]) | Functional properties at α7-nAChRs (agonist / antagonist) (α7-nAChRs) | Kd (5HT3A receptors [1]; Kd ± SD, 5HT3A) | EC50 (5HT3A receptors [2]) | Kd (α4β2-nAChRs [3]; [8]) | Functional properties at α4β2-nAChRs (agonist / antagonist, type) (α4β2-nAChRs [3]) | Kd [4] | further results |
| --- | --- | --- | --- | --- | --- | --- | --- | --- | --- | --- | --- |
| Nc1ccc(-c2cn(C3CN4CCC3CC4)nn2)cc1 (stereo not drawn) [QND2, 3-(4-Aminophenyl-1,2,3-triazol-1-yl)quinuclidine] | 1.21 µM | 5HT3A receptor agonist properties | >10 µM | 0.05 µM |  |  |  |  |  |  | EC50 (5HT3A receptors [2]; * partial agonist, >10 = did not pass initial screen): 1.63 ± 0.29 µM; Fold increase in α7-nAChR agonist potency over lead compound TTIn-1 (α7-nAChRs): 20 fold |
| c1ccc2c(-c3cn(CCN4CCCCC4)nn3)c[nH]c2c1 [PPRD12] | 2.55 µM and 2.6 µM | competitive antagonist | >10 µM |  | weak and non-selective α7-nAChR antagonists |  |  |  |  |  | Antagonist KA ± SD, 5HT3A (5HT3A receptors [2]; competitive antagonist (^C), >10 = did not pass initial screen, vs 5-HT): 2.1 ± 0.3^C μM; Antagonist KA ± SD, α7 (α7-nAChRs; competitive antagonist (^C), >10 = did not pass initial screen, vs (±)-epibatidine): 4.5 ± 1.5^C, μM; Antagonist KA ± SD, α7, non-competitive (α7-nAChRs; non-competitive antagonist (^NC)): 11.3 ± 4.5^NC μM |
| COC(=O)c1cc(-c2cn(C3CN4CCC3CC4)nn2)ccc1N (stereo not drawn) [QND15, Methyl 2-amino-5-(1-(quinuclidin-3-yl)-1H-1,2,3-triazol-4-yl)benzoate] |  | 5HT3A receptor agonist properties |  | 1.34 µM |  | 0.04 µM | 0.26 ± 0.03 µM | 11.6 ± 1 µM | competitive antagonism | 3.61 µM | Fold lower affinity for α7-nAChRs than QND2 [4]: 10 fold |
| c1ccc(-c2ccc(-c3cn(CCN4CCCCC4)nn3)cc2)cc1 [PPRD7, 1-(2-(4-(Biphenyl-4-yl)-1,2,3-triazol-1-yl)ethyl)piperidine] |  | did not pass the functional screening |  | > 10 µM | did not pass the functional screening |  | > 10 µM |  | did not pass the functional screening |  | Initial screening for binding to α4β2-nAChRs (α4β2-nAChRs [5]): cannot bind to all tested LGIC receptors; Initial screening for binding to 5HT3A receptors (5HT3A receptors [1]; [9]): cannot bind to all tested LGIC receptors; Kd (5HT3A receptors [2]; competitive antagonist (^C), >10 = did not pass initial screen, vs 5-HT, read-out: Antagonist KA ± SD, 5HT3A): > 10 µM; Kd (α4β2-nAChRs [3]; read-out: Antagonist KA ± SD, α4β2): > 10 µM; Initial screening for binding to α7-nAChRs [4, 9]: cannot bind to all tested LGIC receptors |
| c1cc2c(cc1-c1cn(C3CN4CCC3CC4)nn1)OCO2 (stereo not drawn) [QND1, 3-(4-(Benzo-1,3-dioxol-5-yl)-1,2,3-triazol-1-yl)quinuclidine] |  |  |  | 0.12 ± 0.04 µM |  | 0.02 to 0.05 µM | 0.3 ± 0.04 µM | > 10 µM |  | 0.16 µM |  |
